From patent US7166744B2, “Retinoid derivatives and methods for producing said compounds and anti-cancer pharmaceutical composition comprising said compounds” (Chebigen Co., Ltd., priority 2001, dated 2007)
“Also recorded” adds a separate entry of the source.

Legend:
Type in all cases: cell-based
[1] = tested on: colon cancer cells; test: MTT proliferation assay, colon cancer cells (Table 1); conditions: 48 hours, concentration required for 50% growth inhibition, read-out: IC50, activities of various retinoid derivatives in colon cancer cells
Description: (§1) The effects of test compounds on proliferation of various cancer cells was examined by 3-(4,5-dimethylthiazol-2-yl)-2,5-diphenyltetrazolium bromide (MTT, Sigma) assay in a dose dependent manner. In the MTT assay, colon, liver, cervix, ovary, and breast cancer cell lines were treated with test compounds at various concentrations. Living cancer cells reduce MTT to dark blue MTT formazan that would be measured by absorbance.
(§2) Colon cancer cells, HCT116, DLD-1 and HT29, cervix cancer cells, HeLa and CaSki, ovary cancer cells, SKOV-3, 2774 and OVCAR-3, liver cancer cells, SK-Hep-1, PLCPRF5 and HepG2, and breast cancer cells, ZR75-1 and MDA-MB 231 were seeded at an initial density of 3000 cells per well in 96-well plates. After attachment of cells to the walls of the wells, the medium containing fresh retinoid was treated with various concentrations (0.5 μM, 1 μM, 2.5 μM, 5 μM, 10 μM) for 48 hours. 50 μl of MTT solution (2 mg/ml in PBS) was added to cell culture media. The reaction micture was incubated at 37° C. in a 5% CO2 atmosphere for 4 hours. The supernatant was removed and 150 μl of DMSO was added. The optical density was measured spectrophotometrically at 550 nm. […] For other retinoid derivatives according to the present invention, absorbances were measured by this procedure and IC50 values, concentrations required for 50% growth inhibition, were determined.

[2] = tested on: HCT116 colon cancer cells; test: MTT proliferation assay, HCT116
Description: as §1, §2

[3] = tested on: CaSki cervix cancer cells; test: MTT proliferation assay, CaSki; conditions: 48 hours, uterine cancer
Description: as §1, §2

[4] = tested on: HCT116 colon cancer cells; test: DNA fragmentation assay (agarose gel), HCT116; conditions: for fragmentation of chromosomal DNA (agarose gel): Experimental Example 8, cells treated as above; for DNA ladder (DNA fragmentation): HCT116, 2.5, 5.0, 10 μM, 48 hours
Description: After treated with each retinoid derivative at various concentrations (2.5, 5.0, 10 μM) for 48 hours, HCT116 or MCF-7 cells were poured in 1 mL of PBS and centrifuged at a rate of 13,000 rpm at 4° C. for 1 min. The resulting cell pellets were resuspended in 700 μl of lysis buffer (500 mM Tris, 100 mM EDTA, 0.5% SDS) containing 17.5 μl of proteinase K (20 mg/ml), and incubated on 55° C. water bath for 3 hours. The lysates were mixed with 700 μl of phenol solution while slowly stirring and centrifuged at 12,000 rpm for 5 min. The supernatants were separated and extracted with phenol once more. The supernatants were mixed with 600 μl of 100% ethanol and 60 μl of 3M NaOAc (pH 7.0) and left at −20° C. for 2 hours. The supernatants were removed by centrifugation at 12,000 rpm for 10 min to obtain pellets. After 70% ethanol washing and drying, DNA pellet was resuspended in 100 μl of TE (Tris-EDTA) buffer and treated with RNase A. The obtained samples were electrophoresed for 2 hours at 75 V on 1.8% agarose gels.
In order to confirm the above results, DNA was separated from the cells treated as above and examined for DNA fragmentation by agarose gel electrophoresis (FIG. 13).

[5] = tested on: AP-1 (c-Jun); test: AP-1 CAT reporter assay (c-Jun cotransfection); conditions: 1 μM; for AP-1 reporter CAT expression, −c-Jun/−RARα: control = 1.0; for AP-1 reporter CAT expression, +c-Jun/+RARα / AP-1 reporter CAT expression, +c-Jun/−RARα: control = 5.0; for suppression of AP-1 activity: Experimental Example 5; for repression of AP-1 activity: Experimental Example 10, text
Source text: As the reporter gene, the CAT enzyme gene with a site recognizing AP-1 of collagenase was used.

[6] = molecular target: T1, RARγ (Homo sapiens, UniProt P13631); test: CAT reporter assay, RARγ; conditions: 1 μM, control = 1.0; for expression level of CAT enzyme, RARγ −: column '−'
T1 construct: expressed in transfected cells
T1 sequence (P13631 1-454): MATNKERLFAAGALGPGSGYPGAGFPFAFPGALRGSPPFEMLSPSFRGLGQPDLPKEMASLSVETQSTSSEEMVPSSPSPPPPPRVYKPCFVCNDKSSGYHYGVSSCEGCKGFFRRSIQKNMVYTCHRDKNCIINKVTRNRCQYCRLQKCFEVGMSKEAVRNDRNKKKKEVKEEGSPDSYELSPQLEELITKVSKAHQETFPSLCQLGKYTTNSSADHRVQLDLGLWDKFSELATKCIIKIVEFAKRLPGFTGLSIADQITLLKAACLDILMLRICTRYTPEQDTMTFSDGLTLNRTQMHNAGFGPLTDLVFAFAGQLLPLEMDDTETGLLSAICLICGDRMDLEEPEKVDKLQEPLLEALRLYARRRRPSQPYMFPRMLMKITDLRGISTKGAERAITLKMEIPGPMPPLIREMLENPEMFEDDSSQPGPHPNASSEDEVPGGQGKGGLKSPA
Source text: In order to confirm the effect of KCBG60 according to the present invention on retinoid receptor activity, cells were cotransfected with expression vectors of receptor subfamilies and reporter genes. As the reporter gene, chloramphenicol acetyltransferase (CAT) with a transcription control site reactive to respective receptors was used.

[7] = molecular target: T2, RXRα (Homo sapiens, UniProt P19793); test: CAT reporter assay, RXRα; conditions: 1 μM, control = 1.0, RA = 9-cis RA; for expression level of CAT enzyme, RXRα −: column '−'
T2 construct: expressed in transfected cells
T2 sequence (P19793 1-462): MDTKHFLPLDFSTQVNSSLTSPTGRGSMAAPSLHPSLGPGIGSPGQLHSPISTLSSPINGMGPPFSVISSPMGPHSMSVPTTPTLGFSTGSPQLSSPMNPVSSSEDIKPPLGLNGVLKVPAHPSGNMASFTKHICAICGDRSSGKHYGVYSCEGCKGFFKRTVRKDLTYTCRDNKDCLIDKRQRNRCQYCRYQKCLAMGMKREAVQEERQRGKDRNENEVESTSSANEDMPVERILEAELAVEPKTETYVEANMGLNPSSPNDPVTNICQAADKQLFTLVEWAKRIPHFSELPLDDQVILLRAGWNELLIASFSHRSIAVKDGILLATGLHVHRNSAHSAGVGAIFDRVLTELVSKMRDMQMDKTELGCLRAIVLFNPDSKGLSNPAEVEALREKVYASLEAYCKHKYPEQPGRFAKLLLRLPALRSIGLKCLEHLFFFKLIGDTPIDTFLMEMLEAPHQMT
Source text: As the reporter gene, chloramphenicol acetyltransferase (CAT) with a transcription control site reactive to respective receptors was used.

Compound	IC50 [1]	IC50 ([2]; Homo sapiens, HCT-116, 48 hours)	IC50 ([3]; Homo sapiens, Ca-Ski)	fragmentation of chromosomal DNA (agarose gel) [4]	AP-1 reporter CAT expression, −c-Jun/−RARα [5]	AP-1 reporter CAT expression, +c-Jun/+RARα [5]	AP-1 reporter CAT expression, +c-Jun/−RARα [5]	expression level of CAT enzyme, RARγ + [6]	expression level of CAT enzyme, RARγ − [6]	IC50 ([2]; 48 hours)	IC50 [3]	DNA ladder (DNA fragmentation) [4]	expression level of CAT enzyme, RXRα + [7]	expression level of CAT enzyme, RXRα − [7]	suppression of AP-1 activity [5]	repression of AP-1 activity [5]
CC1=C(/C=C/C(C)=C/C=C/C(C)=C/C(=O)O)C(C)(C)CCC1 [ATRA, All-trans-retinoic acid, reference compound]	20000 nM	20000 nM	20000 nM	DNA ladder caused by fragmentation of chromosomal DNA was detected	0.6	2.0	3.5	49.3	14.1	–	–	–	–	–	–	–
CC1=C(/C=C/C(C)=C/C=C/C(C)=C/C(=O)Nc2ccc(O)cc2)C(C)(C)CCC1 [HPR, (2E,4E,6E,8E)-[3,7-dimethyl-9-(2,6,6-trimethylcyclohex-1-enyl)-nona-2,4,6,8-tetraenoylamino]-4-hydroxyphenylamide]	6000 to 8000 nM	–	–	–	0.7	2.2	3.7	24.8	4.5	6000 to 8000 nM	2000 nM	did not show any DNA ladder	1.5	1.0	–	–
CCCC(=O)Oc1cc(O)ccc1NC(=O)/C=C(C)/C=C/C=C(C)/C=C/C1=C(C)CCCC1(C)C [KCBG10, 2.2-[(2E,4E,6E,8E)-3,7-Dimethyl-9-(2,6,6-trimethylcyclohex-1-enyl)-nona-2,4,6,8-tetraenoylamino]-5-hydroxyphenylbutanoate]	3000 nM	–	–	–	–	–	–	–	–	3000 nM	500 nM	DNA band of the ladder shape caused by DNA fragmentation was well detected	–	–	~50%	–
CCCC(=O)Nc1cc(NC(=O)/C=C(C)/C=C/C=C(C)/C=C/C2=C(C)CCCC2(C)C)ccc1O [KCBG41, (2E,4E,6E,8E)-[3,7-dimethyl-9-(2,6,6-trimethylcyclohex-1-enyl)-nona-2,4,6,8-tetraenoylamino]-(3-butyrylamino-4-hydroxy)phenylamide]	300 nM	–	–	–	–	–	–	–	–	1400 nM	3000 nM	DNA band of the ladder shape caused by DNA fragmentation was well detected; also recorded: at a similar concentration showed DNA fragmentation	–	–	~50%	–
CCCC(=O)Oc1ccc(NC(=O)/C=C(C)/C=C/C=C(C)/C=C/C2=C(C)CCCC2(C)C)cc1 [KCBG60]	–	–	–	DNA ladder caused by fragmentation of chromosomal DNA was detected	0.6	2.4	3.6	1.9	0.6	–	–	–	1.3	0.9	–	about 50%
phenyl butylate	–	–	–	did not induce any fragmentation of chromosomal DNA	1.0	5.3	4.7	1.1	0.8	–	–	–	1.2	1.1	–	did not affect
